Experimental data reported in ChEMBL document CHEMBL1142622, “Inhibition of phospholipase cgamma1 and cancer cell proliferation by triterpene esters from Uncaria rhynchophylla” (J Nat Prod, 2000).
pIC50: −log10 of the molar value. Converted amounts (≈) assume the structure as drawn.

Legend:
HT1197 = test: Antiproliferative activity against PLCgamma1 expressing human HT1197 cells; format: functional, cell-based
HCT-15 = test: Antiproliferative activity against PLCgamma1 expressing human HCT15 cells; format: functional, cell-based
NIH3T3 = test: Inhibition of PDGF-induced phosphotidyl inositol turnover in PLCgamma1 expressing mouse NIH3T3 cells; format: functional, cell-based
[1] = target: T1, 1-phosphatidylinositol 4,5-bisphosphate phosphodiesterase gamma-1 (Homo sapiens, UniProt P19174); test: Inhibition of PLCgamma1
T1 sequence (P19174 whole entry): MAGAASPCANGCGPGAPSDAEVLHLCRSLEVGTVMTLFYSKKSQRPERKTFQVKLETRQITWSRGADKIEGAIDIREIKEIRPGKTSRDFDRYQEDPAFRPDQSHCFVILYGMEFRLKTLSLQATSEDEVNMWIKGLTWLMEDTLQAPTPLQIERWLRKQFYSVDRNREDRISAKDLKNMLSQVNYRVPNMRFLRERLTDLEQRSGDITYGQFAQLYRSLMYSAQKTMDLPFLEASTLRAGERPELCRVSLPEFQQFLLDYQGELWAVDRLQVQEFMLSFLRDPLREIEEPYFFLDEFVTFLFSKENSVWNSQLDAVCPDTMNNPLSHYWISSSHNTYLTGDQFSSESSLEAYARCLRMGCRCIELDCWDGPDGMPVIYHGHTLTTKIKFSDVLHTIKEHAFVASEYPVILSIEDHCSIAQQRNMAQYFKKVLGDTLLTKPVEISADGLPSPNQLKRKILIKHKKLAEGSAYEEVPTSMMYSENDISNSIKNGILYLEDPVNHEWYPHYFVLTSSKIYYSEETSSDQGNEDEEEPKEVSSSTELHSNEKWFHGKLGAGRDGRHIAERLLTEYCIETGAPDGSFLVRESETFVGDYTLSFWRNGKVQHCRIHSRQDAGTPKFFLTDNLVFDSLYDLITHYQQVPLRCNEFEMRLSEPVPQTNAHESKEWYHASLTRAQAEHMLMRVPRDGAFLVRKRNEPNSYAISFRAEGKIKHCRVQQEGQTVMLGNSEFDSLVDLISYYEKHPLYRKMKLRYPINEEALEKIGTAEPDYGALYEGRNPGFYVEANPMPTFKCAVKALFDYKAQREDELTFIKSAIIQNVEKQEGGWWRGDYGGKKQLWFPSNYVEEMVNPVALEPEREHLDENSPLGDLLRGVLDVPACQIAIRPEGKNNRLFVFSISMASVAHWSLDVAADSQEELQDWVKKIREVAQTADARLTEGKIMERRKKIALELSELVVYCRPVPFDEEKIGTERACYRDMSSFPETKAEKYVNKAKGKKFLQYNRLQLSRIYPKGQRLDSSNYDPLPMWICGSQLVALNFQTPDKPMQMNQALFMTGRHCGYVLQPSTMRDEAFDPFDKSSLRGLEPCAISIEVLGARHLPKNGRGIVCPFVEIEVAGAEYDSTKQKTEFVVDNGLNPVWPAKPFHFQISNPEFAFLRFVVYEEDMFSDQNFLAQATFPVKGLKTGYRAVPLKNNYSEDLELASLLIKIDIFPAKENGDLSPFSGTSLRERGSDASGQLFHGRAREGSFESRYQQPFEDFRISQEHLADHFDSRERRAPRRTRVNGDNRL

| IC50 (HCT-15) [µg/mL] | pIC50 [1] | SMILES | IC50 (HT1197) [µg/mL] | pIC50 (NIH3T3) |
| --- | --- | --- | --- | --- |
| 13.4 (≈ 24.7 µM) |  | COc1cccc2c1C(=O)c1c(O)c3c(c(O)c1C2=O)C[C@@](O)(C(=O)CO)C[C@@H]3O[C@H]1C[C@H](N)[C@H](O)[C@H](C)O1 [DOXORUBICIN] | 0.03 (≈ 0.0552 µM) |  |
|  | 4.54 | O=c1cc(-c2ccc(O)c(-c3c(O)cc(O)c4c(=O)cc(-c5ccc(O)cc5)oc34)c2)oc2cc(O)cc(O)c12 [AMENTOFLAVONE] |  | 5.04 |
